Measurements reported in patent US20250186436A1 (4E Therapeutics, Inc., priority 2021, published 2025).
Values joined by “and” are separate entries in the source; they are usually repeats but may differ in a detail not shown here. Identical values can stand only once. Like-named read-outs stand apart in the source and are kept apart here.

Assays:
[1] = tested on: paclitaxel CIPN mice; assay: Conditioned Place Preference (CPP) test with chemotherapy induced peripheral neuropathy (CIPN) mice; type: in vivo
Experimental: Mice were treated over a period of 8 days with 4 injections of paclitaxel, made in ethanol and kollipher vehicle, each at 4 mg/kg for a cumulative dose of 16 mg/kg. […] 4ET-03-053 was given with pairing with the white chamber in the CPP box with the idea that pain relief in the white chamber will counteract the natural aversion mice have to areas with bright light.

[2] = Plasma and brain concentrations, brain to plasma ratio 24 hr after last of five 25 mg/kg PO doses (Example 8); type: in vivo; conditions: rats, 24 hr after the last of five 25 mg/kg PO doses; for concentration at 24 hr / concentration at 24 h: Sprague-Dawley, rat, oral, 25 mg/kg; for concentration at 24 h: male
Text: Table 24 provides plasma and brain concentrations at 24 hr after the last dose of five daily PO doses of 4ET-03-053.

[3] = PK study in CD-1 male mice with IV and PO dosing (Example 3); type: in vivo; conditions: for AUC(0-t): AUClast; for concentration at 24 h: Clast; for MRT inf: MRTinf
Experimental: Example 3: PK study of 4ET-03-053 in CD-1 male mice with IV and PO dosing
In mice, following IV administration with 1.5 mg/kg, plasma concentrations declined in a multiphasic manner with an initial concentration (Co) of 708 ng/mL and a last measurable concentration (Clast) of 5.29 ng/mL at 24 h post dose.

[4] = tested on: P-gp (human MDR1, ABCB1); assay: MDCK-MDR1 permeability (blood-brain barrier permeability); conditions: dog
[5] = PK study in male Sprague-Dawley rats, IV 0.5 mg/kg and PO 1 mg/kg in 10% DMA/PG (Example 5); type: in vivo; conditions: for MRT inf: MRTinf
Experimental: Example 5: PK study of 4ET-03-053 in male Sprague-Dawley rats with IV (0.5 mg kg; 10% DMI 15% EtOH 35% PG 40% NS) and PO (1 mg kg; 10% DMA PG) dosing
In male Sprague-Dawley rats, following IV administration with 0.5 mg/kg 4ET-03-053, plasma concentrations declined in a multiphasic manner with an initial concentration (Co) of 1.24 ug/mL and a last measurable concentration (Clast) of 33.2 ng/mL at 24 h post dose.
Table 15 provides plasma and brain concentrations at 2 hr after a single P0 dose of 1 mg/kg.

[6] = Liver microsome stability; conditions: mouse, liver microsomes
[7] = tested on: eIF4E phosphorylation in mouse tissues; assay: In vivo biochemical assay (Western blot) of eIF4E phosphorylation in mouse tissues; conditions: mice, PO 10 mg/kg
Experimental: […] Tissues were acutely dissected and immediately frozen. Frozen samples were later bead homogenized with protease and phosphatase inhibitor cocktails present in the homogenization buffer and then protein was quantified by Bradford assay. 20 μg of protein was run per lane on standard SDS-PAGE. Blots were probed with antibodies against p-eIF4E and total-eIF4E and imaged on a BioRad imaging system. […] However, inhibition of phosphorylation of eIF4E in the brain was not observed, as determined by Western blot analysis of brain tissue from the cortex.

[8] = Plasma and brain concentrations, brain to plasma ratio in SD rats 2 hr after single 10 mg/kg PO (Example 4); type: in vivo; conditions: 2 hr post single PO dose 10 mg/kg; for concentration at 2 hr: Sprague-Dawley, po
Experimental: A brain to plasma ratio of 0.096 (BP=0.096) in SD rats is observed at 2 hr following a single 10 mg/kg dose of 4ET-03-053.

[9] = male, CD-1, mouse, in vivo, iv, 1.5 mg/kg
[10] = male, CD-1, mouse, in vivo, po, 10 mg/kg
[11] = male Sprague-Dawley rats, IV 0.5 mg/kg, 10% DMI:15% EtOH:35% PG:40% NS, individual animals, 0.5 mg/kg
[12] = male, Sprague-Dawley, rat, in vivo, iv, 0.5 mg/kg
[13] = male, Sprague-Dawley, rat, in vivo, po, 1 mg/kg
[14] = individual animals (n = 3), 10 mg/kg

SMILES: Cc1cc(Nc2cc(N)ncn2)c(=O)n2c1C(=O)NC21CCC2(CC2)CC1 [4ET-03-053, 6″-((6-Aminopyrimidin-4-yl)amino)-8″-methyl-2″H-dispiro[cyclopropane-1,1′-cyclohexane-4′,3″-imidazo[1,5-a]pyridine]-1″,5″-dione]
- CPP: time in white (drug-paired) chamber ([1]; CIPN mice (paclitaxel), 10 mg/kg): spent more time in the white chamber vs. dark chambers
- CPP: effect in mice without CIPN (reward) ([1]; mice that did not have CIPN): no effect
- concentration at 24 hr ([2]; brain homogenate, brain homogenate, mean, read-out: Tissue Homogenate Conc., Mean): 122 ng/mL
- concentration at 24 hr ([2]; brain, brain, read-out: Mean Tissue): 489 ng/g
- concentration at 24 h ([2]; brain homogenate, brain homogenate, individual animals (n = 3), read-out: Tissue Homogenate Conc.): 104 ng/mL
- concentration at 24 h ([2]; plasma, plasma, individual animals (n = 3), read-out: Plasma Conc.): 5340 ng/mL
- concentration at 24 h ([2]; plasma, plasma, mean, read-out: Plasma Conc., Mean): 5890 ng/mL
- Tissue Homogenate Conc. ([2]; brain homogenate, individual animals (n = 3)): 127 ng/mL and 136 ng/mL
- Plasma Conc. ([2]; plasma, individual animals (n = 3)): 6120 ng/mL and 6220 ng/mL
- F ([3]; CD-1 male mice, 10 mg/kg PO, individual animals, 10 mg/kg): 75.6%
- clinical observation after dosing [3, 9]: lying on side and immobile with heavy breathing for about 1 min
- AUC(0-inf) ([3]; male, CD-1, mouse, in vivo, iv, 1.5 mg/kg, AUCinf): 1530 ng·h/mL
- AUC(0-t) [3, 9]: 1300 ng·h/mL
- clearance ([3]; male, CD-1, mouse, in vivo, iv, 1.5 mg/kg, CLp): 19.3 mL/min/kg
- concentration at 24 h [3, 9]: 5.29 ng/mL
- MRT inf [3, 9]: 4.93 h
- Vd ([3]; male, CD-1, mouse, in vivo, iv, 1.5 mg/kg, Vss): 5.63 L/kg
- half-life ([3]; male, CD-1, mouse, in vivo, iv, 1.5 mg/kg, t1/2): 6.17 h
- AUC(0-inf) ([3]; male, CD-1, mouse, in vivo, iv, 1.5 mg/kg, total systemic exposure (AUCinf)): 1320 ng·h/mL
- Tmax [3, 10]: 0.5 h
- bioavailability [3, 10]: 75%
- time to mean peak plasma concentration [3, 10]: ≤ 30 min
- AUC(0-inf) ([3]; male, CD-1, mouse, in vivo, po, 10 mg/kg, AUCinf): 6670 ng·h/mL
- AUC(0-t) [3, 10]: 6420 ng·h/mL
- concentration at 24 h [3, 10]: 33.2 ng/mL
- Cmax ([3]; male, CD-1, mouse, in vivo, po, 10 mg/kg, Cmax): 807 ng/mL
- MRT inf [3, 10]: 6.7 h
- half-life ([3]; male, CD-1, mouse, in vivo, po, 10 mg/kg, t1/2): 5.14 h
- AUC(0-inf) ([3]; male, CD-1, mouse, in vivo, po, 10 mg/kg, total systemic exposure (AUCinf)): 6620 ng·h/mL
- clinical observation after dosing ([3]; mice, slow IV injection at 3 mg/kg, first animal): died immediately after a slow IV injection
- half-life ([3]; mouse, in vivo, CD-1 male mice, 10 mg/kg PO, individual animals, read-out: t1/2 (converted)): 5.11 h
- Papp A→B at 5 uM [4]: 63.3 ×10⁻⁶ cm/s
- Papp B→A at 5 uM [4]: 68.1 ×10⁻⁶ cm/s
- efflux ratio at 5 uM [4]: 1.1
- AUClast [5, 11]: 4654 ng·h/mL and 3767 ng·h/mL
- Clast [5, 11]: 36.7 ng/mL and 29.7 ng/mL
- C0 [5, 12]: 1240 ng/mL
- AUC(0-inf) ([5]; male, Sprague-Dawley, rat, in vivo, iv, 0.5 mg/kg, AUCinf): 4080 ng·h/mL
- clearance ([5]; male, Sprague-Dawley, rat, in vivo, iv, 0.5 mg/kg, CLp): 2.04 mL/min/kg
- MRT inf [5, 12]: 7.69 h
- Vd ([5]; male, Sprague-Dawley, rat, in vivo, iv, 0.5 mg/kg, Vss): 0.942 L/kg
- concentration at 24 h ([5]; male, Sprague-Dawley, rat, in vivo, iv, 0.5 mg/kg, male Sprague-Dawley rats, 0.5 mg/kg IV, at 24 h, read-out: last measurable concentration (Clast)): 33.2 ng/mL
- AUC(0-t) ([5]; male, Sprague-Dawley, rat, in vivo, iv, 0.5 mg/kg, male Sprague-Dawley rats, IV 0.5 mg/kg, 10% DMI:15% EtOH:35% PG:40% NS, individual animals, read-out: AUClast): 4030 ng·h/mL
- concentration at 24 h ([5]; male, Sprague-Dawley, rat, in vivo, iv, 0.5 mg/kg, male Sprague-Dawley rats, IV 0.5 mg/kg, 10% DMI:15% EtOH:35% PG:40% NS, individual animals, read-out: Clast): 33.1 ng/mL
- AUC(0-t) ([5]; male, Sprague-Dawley, rat, in vivo, iv, 0.5 mg/kg, male Sprague-Dawley rats, IV 0.5 mg/kg, 10% DMI:15% EtOH:35% PG:40% NS, mean (n = 3), read-out: AUClast): 4150 ng·h/mL
- concentration at 24 h ([5]; male, Sprague-Dawley, rat, in vivo, iv, 0.5 mg/kg, male Sprague-Dawley rats, IV 0.5 mg/kg, 10% DMI:15% EtOH:35% PG:40% NS, mean (n = 3), read-out: Clast): 33.2 ng/mL
- Vd ([5]; male, Sprague-Dawley, rat, in vivo, iv, 0.5 mg/kg, steady-state volume of distribution (Vss)): 0.87 L/kg
- clearance ([5]; male, Sprague-Dawley, rat, in vivo, iv, 0.5 mg/kg, systemic clearance (CLp)): 1.87 mL/min/kg
- half-life ([5]; male, Sprague-Dawley, rat, in vivo, iv, 0.5 mg/kg, t1/2): 7.26 h
- half-life ([5]; male, Sprague-Dawley, rat, in vivo, iv, 0.5 mg/kg, terminal half-life (t1/2)): 7.33 h
- AUC(0-inf) ([5]; male, Sprague-Dawley, rat, in vivo, iv, 0.5 mg/kg, total systemic exposure (AUCinf)): 4500 ng·h/mL
- Tmax [5, 13]: 0.5 h
- bioavailability [5, 13]: 76.7%
- time to peak plasma concentration [5, 13]: ≤ 30 min
- AUC(0-inf) ([5]; male, Sprague-Dawley, rat, in vivo, po, 1 mg/kg, AUCinf): 7020 ng·h/mL
- AUC(0-t) ([5]; male, Sprague-Dawley, rat, in vivo, po, 1 mg/kg, AUClast): 6110 ng·h/mL
- concentration at 24 hr ([5]; male, Sprague-Dawley, rat, in vivo, po, 1 mg/kg, Clast): 74.6 ng/mL
- Cmax ([5]; male, Sprague-Dawley, rat, in vivo, po, 1 mg/kg, Cmax): 683 ng/mL
- MRT inf [5, 13]: 10.6 h
- concentration at 24 hr ([5]; male, Sprague-Dawley, rat, in vivo, po, 1 mg/kg, last measurable concentration): 74.6 ng/mL
- Cmax ([5]; male, Sprague-Dawley, rat, in vivo, po, 1 mg/kg, peak plasma concentration (Cmax)): 683 ng/mL
- half-life ([5]; male, Sprague-Dawley, rat, in vivo, po, 1 mg/kg, t1/2): 9.23 h
- half-life ([5]; male, Sprague-Dawley, rat, in vivo, po, 1 mg/kg, terminal half-life (t1/2)): 9.23 h
- AUC(0-inf) ([5]; male, Sprague-Dawley, rat, in vivo, po, 1 mg/kg, total systemic exposure (AUCinf)): 6900 ng·h/mL
- half-life [6]: 3.8 h
- inhibition of phosphorylation of eIF4E in the brain (cortex) [7]: not observed
- inhibition of eIF4E phosphorylation in DRGs ([7]; 2 hours post dose): significant inhibition
- inhibition of eIF4E phosphorylation in sciatic nerve ([7]; 2 hours post dose): significant inhibition
- inhibition of eIF4E phosphorylation in spleen ([7]; 2 hours post dose): significant inhibition
- Brain Tissue Homogenate Conc. [8, 14]: 406 ng/mL and 323 ng/mL
- Plasma Conc. [8, 14]: 16900 ng/mL and 14400 ng/mL
- Kp at 2 h ([8]; Sprague Dawley, rat, brain/plasma, read-out: Mean Tissue/Plasma Conc. Ratio (brain to plasma ratio)): 0.096
- concentration at 2 hr ([8]; rat, brain tissue homogenate, 10 mg/kg, individual animals (n = 3), read-out: Brain Tissue Homogenate Conc.): 319 ng/mL
- concentration at 2 hr ([8]; rat, brain tissue homogenate, 10 mg/kg, mean, read-out: Brain Tissue Homogenate Conc., Mean): 349 ng/mL
- concentration at 2 hr ([8]; rat, brain, 10 mg/kg, read-out: Brain Mean Tissue): 1400 ng/g
- concentration at 2 hr ([8]; rat, plasma, 10 mg/kg, individual animals (n = 3), read-out: Plasma Conc.): 12200 ng/mL
- concentration at 2 hr ([8]; rat, plasma, 10 mg/kg, mean, read-out: Plasma Conc., Mean): 14500 ng/mL
